Experimental data as given in US11326207B2, “Sequencing using non-natural nucleotides” (Ultima Genomics, Inc., priority 2017, dated 2022).
Like-named read-outs stand apart in the source and are kept apart here.

Experiments:
Bst 2.0 DNA polymerase = test: Homopolymer assays of nucleotide analogs (Example 10); type: biochemical; settings: Natural Nucleotide T (TTP = 1); template oligo 332, primer 221L
Description: A homopolymer assay was performed to investigate the effectiveness of E-dCTP and P-dUTP as nucleotide analogs of dCTP. 50 μl solutions containing a template nucleic acid molecule and primer and Bst 2.0 DNA polymerase are placed in a microplate reader and the fluorescence of the solution is measured in kinetic mode. A fluorescein attached to an oligonucleotide (indicated with a * in FIG. 7) was quenched in the substrate due to the proximity of complementary G bases. Addition of dCTP and/or dCTP analogs causes extension of the 3′ end of the primer, formation of double-stranded DNA, and unquenching of the fluorescein. The fluorescence increases with the addition of multiple nucleotides.
Additional homopolymer assays were performed according to the procedure outlined in Example 8 using different nucleotides and nucleotide analogs.
To test for dUTP or TTP incorporation, oligo 332 was used as a template and oligo 221L was used as a primer. To test for dCTP incorporation, oligo 333 was used as a template and oligo 221L was used as a primer. To test for dGTP incorporation, oligo 334 was used as a template and oligo 221L was used as a primer. To test for dATP incorporation, hairpin oligo 221 was used as both a primer and template.

DNA polymerase = settings: for peak height (red fluorescence on the gel): dUTP* only (Fr = 1.0) or dUTP*/named dUTP^0
Description: A gel assay was also performed to examine context-dependent incorporation. […] The primers had different lengths poly-T tails to enable separation on a polyacrylamide gel. […] Excess nucleotides and nucleotide analogs were washed away and the sample was loaded onto a gel.
The red fluorescence on the gel was analyzed with ImageJ. The peak heights for the extension reactions for each primer with Fr=1.0 was measured. […] The ratios of the peak heights for each pair were calculated (“norm.”). […] The metric in this experiment was context, as defined as: C=(Maximum signal−minimum signal)/(average signal).

Bst DNA polymerase v.2.0 = test: Flow cytometry assay: tolerance of dye-labeled dUTP* compared to dUTP analogs (Example 7); type: biochemical; settings: for Tolerance: tolerance of dUTP* compared to the named dUTP^0
Description: A solution of biotinylated template (2 microliters (μL) of 100 μM) and dye-labeled primer (4 μL of 100 μM) were combined in annealing buffer (40 μL; Tris (10 millimolar (mM)), EDTA (1 mM), NaCl (100 mM)). The resulting solution was heated to 95° C. and allowed to slowly cool to room temperature. A portion of this solution (8 μL) was mixed with streptavidin-labeled magnetic beads (4 μL of Invitrogen Dynabeads™ MyOne™ Streptavidin C1, 10 milligrams/milliliter (mg/mL); washed and eluant removed) and 2× bead wash buffer (8 μL; 10 mM Tris, pH 7.5, 1 mM EDTA, 2 M NaCl, 0.01% Triton X-100). After washing with TET solution (10 mM Tris, 1 mM EDTA, 0.05% Triton X-100) the beads were treated with Bst DNA polymerase v.2.0 (8 μL of 8 units (U)/μL; New England Biolabs) for five minutes. The excess enzyme was removed by washing with TET and the beads were suspended in 1×DNA polymerase buffer solution (20 mM Tris, pH 8, 10 mM NaCl, 2 mM MgCl2, 0.01% Triton X-100). The sequence of the biotinylated template was /52 Bio//iSp18/[…] […] (SEQ ID NO: 12), where “5” is indicative of the 5′-end of the oligo, 2-Bio indicates dual biotin, and iSP18 indicates a PEG spacer. […] […] (SEQ ID NO: 13), where “5” indicates the 5′-end of the oligo and JOE indicates a fluorescent dye attached to the oligo.
Next, a portion of the suspended magnetic beads (10 μL) were removed and placed in a PCR tube. A solution of nucleotides (10 μL) was added to the tube and the tube incubated for 40 seconds (s) at 50° C. The enzyme reaction was stopped with the addition of 5 μL of 50 mM EDTA. The beads were washed with 2×100 μL TET and resuspended in 20 μL TET. A portion of the bead solution (1 μL) was added to TE (200 μL) and the beads examined for red fluorescence on a flow cytometer (BD Accuri™, APC channel). The eluant of the remaining beads was removed and 40 μL of 95:5 formamide:10 mM EDTA was added to the beads. A portion of the formamide solution (1 μL) was added to 40 μL 95:5 formamide EDTA. The solutions were examined by capillary electrophoresis (CE) on an ABI 3730 instrument and the peaks identified and quantitated by peak height. The experimental protocol is summarized schematically in FIG. 2.
Tolerance was measured at two molar fractions, […] and 0.05, for each of the four dUTP analogs.

## Cc1cn([C@H]2C[C@H](O)[C@@H](COP(=O)(O)OP(=O)(O)OP(=O)(O)O)O2)c(=O)[nH]c1=O [TTP, thymidine triphosphate, reference compound]
Bst 2.0 DNA polymerase
  Relative Rate in Homopolymer Assay: 1
DNA polymerase; Peak 1
  Norm. (ratio of peak height dUTP*/dUTP^0 to Fr=1.0): 1.1
DNA polymerase; Peak 1 (primer)
  peak height (red fluorescence on the gel): 48
DNA polymerase; Peak 2
  Norm. (ratio of peak height dUTP*/dUTP^0 to Fr=1.0): 1.4
DNA polymerase; Peak 2 (primer)
  peak height (red fluorescence on the gel): 56
DNA polymerase; Peak 3
  Norm. (ratio of peak height dUTP*/dUTP^0 to Fr=1.0): 1.0
DNA polymerase; Peak 3 (primer)
  peak height (red fluorescence on the gel): 25
DNA polymerase; Peak 4
  Norm. (ratio of peak height dUTP*/dUTP^0 to Fr=1.0): 1.2
DNA polymerase; Peak 4 (primer)
  peak height (red fluorescence on the gel): 38
DNA polymerase; Peak 5
  Norm. (ratio of peak height dUTP*/dUTP^0 to Fr=1.0): 1.7
DNA polymerase; Peak 5 (primer)
  peak height (red fluorescence on the gel): 38
DNA polymerase; five primers, gel assay with dUTP*
  context C=(Maximum signal−minimum signal)/(average signal): 0.54
Bst DNA polymerase v.2.0; molar fraction dUTP* 0.05
  Apparent fraction: 0.058
  Tolerance: 1.2
Bst DNA polymerase v.2.0; molar fraction dUTP* 0.05, rest the named dUTP^0
  Red signal: 2,900
Bst DNA polymerase v.2.0; molar fraction dUTP* 0.5
  Apparent fraction: 0.42
  Tolerance: 0.8
Bst DNA polymerase v.2.0; molar fraction dUTP* 0.5, rest the named dUTP^0
  Red signal: 21,000
